Results on two molecules are retold here after patent US6613776B2, “Pyrazole compounds useful as protein kinase inhibitors” (Vertex Pharmaceuticals Incorporated, priority 2000, dated 2003).

One series addresses T1, GSK-3β (AA 1-420) (Homo sapiens, UniProt P49841).
T1 construct: GSK-3β (AA 1-420)
Kind of series: Ki determination for the inhibition of GSK-3 (coupled enzyme system). As to conditions: 20 μM ATP, 300 μM peptide, 20 nM GSK-3β, 30° C. The format is biochemical. As for the experimental part:
Compounds were screened for their ability to inhibit GSK-3β (AA 1-420) activity using a standard coupled enzyme system (Fox et al. (1998) Protein Sci. 7, 2249). Reactions were carried out in a solution containing 100 mM HEPES (pH 7.5), 10 mM MgCl2, 25 mM NaCl, 300 μM NADH, 1 mM DTT and 1.5% DMSO. Final substrate concentrations in the assay were 20 μM ATP (Sigma Chemicals, St Louis, Mo.) and 300 μM peptide (HSSPHQS(PO3H2)EDEEE, American Peptide, Sunnyvale, Calif.). Reactions were carried out at 30° C. and 20 nM GSK-3β. Final concentrations of the components of the coupled enzyme system were 2.5 mM phosphoenolpyruvate, 300 μM NADH, 30 μg/ml pyruvate kinase and 10 μg/ml lactate dehydrogenase.
An assay stock buffer solution was prepared containing all of the reagents listed above with the exception of ATP and the test compound of interest. The assay stock buffer solution (175 μl) was incubated in a 96 well plate with 5 μl of the test compound of interest at final concentrations spanning 0.002 μM to 30 μM at 30° C. for 10 min. Typically, a 12 point titration was conducted by preparing serial dilutions (from 10 mM compound stocks) with DMSO of the test compounds in daughter plates. […] Rates of reaction were obtained using a Molecular Devices Spectramax plate reader (Sunnyvale, Calif.) over 10 min at 30° C. The Ki values were determined from the rate data as a function of inhibitor concentration.

Another series has as its target T2, Aurora-2 (Homo sapiens, UniProt O14965).
T2 sequence (O14965 1-403): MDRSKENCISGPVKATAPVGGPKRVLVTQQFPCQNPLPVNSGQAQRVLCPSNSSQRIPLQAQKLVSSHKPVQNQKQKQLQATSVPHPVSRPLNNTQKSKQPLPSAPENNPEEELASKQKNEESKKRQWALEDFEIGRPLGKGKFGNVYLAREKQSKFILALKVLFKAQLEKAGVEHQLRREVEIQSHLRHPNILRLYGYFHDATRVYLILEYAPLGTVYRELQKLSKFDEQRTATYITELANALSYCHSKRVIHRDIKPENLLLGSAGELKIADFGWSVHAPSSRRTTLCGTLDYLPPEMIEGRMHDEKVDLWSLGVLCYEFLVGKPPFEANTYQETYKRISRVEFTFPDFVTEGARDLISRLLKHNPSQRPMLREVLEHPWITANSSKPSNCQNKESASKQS
Briefly: Ki determination for the inhibition of Aurora-2 (coupled enzyme assay). The series is classed as biochemical. As to conditions: 70 nM Aurora-2, 30° C. As for the experimental part: Compounds were screened in the following manner for their ability to inhibit Aurora-2 using a standard coupled enzyme assay (Fox et al (1998) Protein Sci 7, 2249).
To an assay stock buffer solution containing 0.1M HEPES 7.5, 10 mM MgCl2, 1 mM DTT, 25 mM NaCl, 2.5 mM phosphoenolpyruvate, […], 30 mg/ml pyruvate kinase, 10 mg/ml lactate dehydrogenase, […], and 800 μM peptide (LRRASLG, American Peptide, Sunnyvale, Calif.) was added a DMSO solution of a compound of the present invention to a final concentration of 30 μM. The resulting mixture was incubated at 30° C. for 10 min. The reaction was initiated by the addition of 10 μL of Aurora-2 stock solution to give a final concentration of 70 nM in the assay. The rates of reaction were obtained by monitoring absorbance at 340 nm over a 5 minute read time at 30° C. using a BioRad Ultramark plate reader (Hercules, Calif.). The Ki values were determined from the rate data as a function of inhibitor concentration.

T1 sequence (P49841 whole entry, the tested form may be a part): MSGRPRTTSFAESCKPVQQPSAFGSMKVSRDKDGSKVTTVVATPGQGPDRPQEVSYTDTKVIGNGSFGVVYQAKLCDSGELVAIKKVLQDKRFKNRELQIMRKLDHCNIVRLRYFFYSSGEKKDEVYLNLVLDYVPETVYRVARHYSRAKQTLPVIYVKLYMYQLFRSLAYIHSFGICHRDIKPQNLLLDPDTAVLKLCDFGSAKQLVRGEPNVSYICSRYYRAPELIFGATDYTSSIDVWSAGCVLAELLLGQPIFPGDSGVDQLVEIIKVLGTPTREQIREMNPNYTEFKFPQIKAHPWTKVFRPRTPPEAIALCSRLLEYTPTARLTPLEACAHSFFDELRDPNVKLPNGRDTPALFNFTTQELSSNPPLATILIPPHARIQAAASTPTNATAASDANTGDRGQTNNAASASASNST

By Ki is commonly meant a dissociation constant, usually derived from enzyme kinetics or from competition with a known ligand. A lower Ki goes with tighter binding. A word on the melting point: it is the temperature, or range, at which the solid turns liquid. As for `Cc1cc(Nc2nc(N3CCC(C)CC3)nc3nc[nH]c23)n[nH]1` [IV-33, [2-(4-Methylpiperidin-1-yl)-purin-4-yl]-(S-methyl-2H-pyrazol-3-yl)-amine], the melting point is > 300 °C. The molecule further yielded a Ki on GSK-3β (AA 1-420) of 100 to 1000 nM. Moreover, the Ki at Aurora-2 lay within 100 to 1000 nM.

With `COC(=O)c1cc(Nc2ccnc(N3CCCCC3)n2)n[nH]1` [IV-8], on GSK-3β (AA 1-420), the Ki is 100 to 1000 nM.
